These molecules were tested on IFNα-Induced STAT Phosphorylation in Human Whole Blood (assay: IFNα-Induced STAT Phosphorylation in Human Whole Blood). Details: 1 h incubation with compound, 1000 U/mL recombinant human IFNα A/D for 15 min, pSTAT5 (pY694) median fluorescence intensity in CD3 positive population, read-out: hWB IC50.
Assay type: cell-based

IC50 [µM] | SMILES
0.08 | [2H]C([2H])([2H])NC(=O)c1nnc(Nc2ccc(OC)nn2)cc1Nc1cccc(-c2ncc(F)cn2)c1OC [Example 97, 4-((3-(5-fluoropyrimidin-2-yl)-2-methoxyphenyl)amino)-6-((6-methoxypyridazin-3-yl)amino)-N-(methyl-d3)pyridazine-3-carboxamide]
0.682 | [2H]C([2H])([2H])NC(=O)c1cnc(NC(=O)C2CC2)cc1Nc1cccc(-c2ncc(F)cc2C#N)c1OC [Example 115]
0.151 | [2H]C([2H])([2H])NC(=O)c1nnc(Nc2cc(=O)n(C)cn2)cc1Nc1cccc(-c2ncc(F)cn2)c1OC [Example 106, 4-((3-(5-fluoropyrimidin-2-yl)-2-methoxyphenyl)amino)-N-(methyl-d3)-6-((1-methyl-6-oxo-1,6-dihydropyrimidin-4-yl)amino)pyridazine-3-carboxamide]
0.086 | [2H]C([2H])([2H])NC(=O)c1cnc(Nc2ccn(C)n2)cc1Nc1cccc(-c2ncc(F)cn2)c1OC [Example 65, 4-((3-(5-fluoropyrimidin-2-yl)-2-methoxyphenyl)amino)-N-(methyl-d3)-6-((1-methyl-1H-pyrazol-3-yl)amino)nicotinamide]
0.12 | [2H]C([2H])([2H])NC(=O)c1nnc(NC(=O)C2CC2)cc1Nc1cc(F)cc(-c2ccc(C(C)(C)O)nn2)c1OC [Example 22, 6-(cyclopropanecarboxamido)-4-((5-fluoro-3-(6-(2-hydroxypropan-2-yl)pyridazin-3-yl)-2-methoxyphenyl)amino)-N-(methyl-d3)pyridazine-3-carboxamide]
0.063 | [2H]C([2H])([2H])NC(=O)c1nnc(NC(=O)C2CC2)cc1Nc1cccc(-c2ncc(C3(O)CCC3)cn2)c1OC [Example 27, 6-(cyclopropanecarboxamido)-4-((3-(5-(1-hydroxycyclobutyl)pyrimidin-2-yl)-2-methoxyphenyl)amino)-N-(methyl-d3)pyridazine-3-carboxamide]
0.077 | [2H]C([2H])([2H])NC(=O)c1cnc(Nc2ccc(C(F)(F)F)nn2)cc1Nc1cccc(-c2ncccn2)c1OC [Example 76, 4-((2-methoxy-3-(pyrimidin-2-yl)phenyl)amino)-N-(methyl-d3)-6-((6-(trifluoromethyl)pyridazin-3-yl)amino)nicotinamide]
0.262 | [2H]C([2H])([2H])NC(=O)c1nnc(Nc2cc3n(n2)CCN(C2CC2)C3=O)cc1Nc1cccc(-c2ncc(F)cn2)c1OC [Example 109, 6-((5-cyclopropyl-4-oxo-4,5,6,7-tetrahydropyrazolo[1,5-a]pyrazin-2-yl)amino)-4-((3-(5-fluoropyrimidin-2-yl)-2-methoxyphenyl)amino)-N-(methyl-d3)pyridazine-3-carboxamide]
0.032 | [2H]C([2H])([2H])NC(=O)c1nnc(NC(=O)C2CC2)cc1Nc1cccc(-c2ccc(C(C)(O)CC)nn2)c1OC (centres unmarked) [Example 23, 6-(cyclopropanecarboxamido)-4-((3-(6-(2-hydroxybutan-2-yl)pyridazin-3-yl)-2-methoxyphenyl)amino)-N-(methyl-d3)pyridazine-3-carboxamide]
0.071 | [2H]C([2H])([2H])NC(=O)c1nnc(Nc2ccc(C3CC3)nn2)cc1Nc1cccc(-c2ncc(F)cn2)c1OC [Example 99, 6-((6-cyclopropylpyridazin-3-yl)amino)-4-((3-(5-fluoropyrimidin-2-yl)-2-methoxyphenyl)amino)-N-(methyl-d3)pyridazine-3-carboxamide]
0.212 | [2H]C([2H])([2H])NC(=O)c1nnc(Nc2cc(C(C)(C)O)ccn2)cc1Nc1cccc(-c2ncc(F)cn2)c1OC [Example 102, 4-((3-(5-fluoropyrimidin-2-yl)-2-methoxyphenyl)amino)-6-((4-(2-hydroxypropan-2-yl)pyridin-2-yl)amino)-N-(methyl-d3)pyridazine-3-carboxamide]
